As a reminder, the inhibition in vivo is the relative decrease from the control value, in per cent.

The text below walks through data of patent publication US8293772B2, “Triazole substituted aminobenzophenone compounds” (Leo Pharma A/S, priority 2004, dated 2012).

The test system of test [1] is TNF-α. In words: Inhibition of TNF-α secretion in LPS stimulated peripheral blood mononuclear cells. Type of test: cell-based. The following applies: LPS stimulated human PBMC, 18 hours, ELISA; read-out: The median inhibition concentration (IC50, nM) of TNF-α. The method, then: (§1) To study the effect of compounds of the present invention in vitro, the inhibition of IL-1β and TNF-α secretion was determined using the following procedure:
(§2) Cytokine production was measured in the media from lipopolysaccharide (LPS) stimulated peripheral blood mononuclear cells. The mononuclear cells were isolated from human peripheral blood by Lymphoprep® (Nycomed, Norway) fractionation and suspended in RPMI 1640 (growth medium) with foetal calf serum (FCS, 2%), at a concentration of 5×10^5 cells/ml. The cells were incubated in 24-well tissue culture plates in 1 ml aliquots. Test compounds were dissolved in dimethylsulfoxide (DMSO, 10 mM) and were diluted with the medium. Compounds were added to the cells for 30 minutes, then LPS ([…] final concentration) was added. The plates were incubated for 18 hours, and the concentration of IL-1β and TNF-α in the medium was determined by enzyme-linked immunosorbent assays. The median inhibitory concentrations (IC50) of the compounds were calculated.
For orientation: ELISA stands for enzyme-linked immunosorbent assay.

Test [2] deals with TNF-α. In words: In vivo screening model of LPS induced TNF-α response in mice. As to conditions: Mus musculus, po, 1 mg/kg p.o., 1 hour prior to LPS, plasma TNF-α 80-90 minutes after LPS, read-out: In vivo inhibition of LPS induced TNF-α production (in %). The method, then:
In Vivo Screening Model of LPS Induced TNF-α Response in Mice
To study the effect of compounds of the present invention in vivo, an in vivo screening model of LPS induced TNF-α response in mice was set up as follows: Groups of 6 mice (C3H/HeN, female, about 8 weeks (20 g), Bomholtgaard) were dosed with test compounds in suspension vehicle 1 hour prior to LPS administration (LPS from E. coli 055:B5, L-4005, Sigma). At time 0, the mice were dosed ip with 1.0 mg LPS/kg. After anesthetization with Hypnorm/Dormicum, the mice were bled from the periorbital venous plexus 80-90 minutes after LPS administration. The blood samples were sampled in EDTA stabilised tubes and centrifuged at 4000 rpm for 10 minutes at 4° C. The plasma level of TNF-α was analysed by ELISA. Compound 156 of WO 98/32730 was used as reference compound. The plasma level of TNF-α was determined using a sandwich ELISA. Microtiter plates were coated with a monoclonal antibody against mouse TNF-α, washed and blocked with a casein buffer. Samples of mouse TNF-α recombinant standards were added to the wells of the microtiter plates and incubated. All standards were tested in triplicate, all plasma samples in single. After sample and standard incubation, the plates were washed and incubated with biotinylated polyclonal secondary antibody against mouse TNF-α and washed. Enzyme conjugate was added to all wells and incubated. Substrate was added and the enzyme/substrate reaction stopped after 15 minutes at room temperature with 1M H2SO4. The colour development (OD) was measured at 450 nm on an ELISA reader and the background OD at 620 nm was subtracted. […] The results of the tested compounds are indicated as a percentage inhibition compared to an LPS treated control group. Compounds were tested at 1 mg/kg (p.o.). The Mann-Whitney test was used to compare drug treated groups to the LPS treated control group (p<0.05).

For a further test, the system named is IL-1β. Nature of the test: Inhibition of IL-1β secretion in LPS stimulated peripheral blood mononuclear cells. The class given is cell-based. As to conditions: LPS stimulated human PBMC, 18 hours, ELISA; read-out: The median inhibition concentration (IC50, nM) of IL-1β. The method, then:
as §1, §2

As for `Cc1ccc(-c2cn(CCCO)nn2)cc1C(=O)c1ccc(Nc2ccc(F)cc2F)cc1Cl` [Compound 104, [2-Chloro-4-(2,4-difluoro-phenylamino)-phenyl]-{5-[1-(3-hydroxy-propyl)-1H-[1,2,3]triazol-4-yl]-2-methyl-phenyl}-methanone], the IC50 with TNF-α [1] was found to be 0.5 nM; in the test with IL-1β, 0.6 nM. For the same compound, in the test on TNF-α [2], the inhibition in vivo at 1 mg/kg was 90%.
Regarding `Cc1ccc(-c2cn(CC3COC(C)(C)O3)nn2)cc1C(=O)c1ccc(Nc2ccc(F)cc2F)cc1Cl` (centres unmarked) [Compound 105, [2-Chloro-4-(2,4-difluoro-phenylamino)-phenyl]-{5-[1-(2,2-dimethyl-[1,3]dioxolan-4-ylmethyl)-1H-[1,2,3]triazol-4-yl]-2-methyl-phenyl}-methanone], the IC50 in the test on TNF-α [1] was 1.4 nM.
With `Cc1ccc(-c2cn(CC(O)CO)nn2)cc1C(=O)c1ccc(Nc2ccc(F)cc2F)cc1Cl` (centres unmarked) [Compound 106, [2-Chloro-4-(2,4-difluoro-phenylamino)-phenyl]-{5-[1-(2,3-dihydroxy-propyl)-1H-[1,2,3]triazol-4-yl]-2-methyl-phenyl}-methanone], the IC50 came out at 0.5 nM in the test with TNF-α [1] and 0.7 nM in the test with IL-1β. Also, the inhibition in vivo at 1 mg/kg with TNF-α [2] was 98%.
For the compound `Cc1ccc(-c2cn(CC(N)=O)nn2)cc1C(=O)c1ccc(Nc2ccc(F)cc2F)cc1Cl` [Compound 107, 2-(4-{3-[2-Chloro-4-(2,4-difluoro-phenylamino)-benzoyl]-4-methyl-phenyl}-[1,2,3]triazol-1-yl)-acetamide], the IC50 in the test on TNF-α [1] was determined as 0.5 nM; with IL-1β, 0.8 nM. Besides, the inhibition in vivo at 1 mg/kg with TNF-α [2] was found to be 91%.
`CCOC(=O)Cn1cc(-c2ccc(C)c(C(=O)c3ccc(Nc4ccc(F)cc4F)cc3Cl)c2)nn1` [Compound 110, (4-{3-[2-Chloro-4-(2,4-difluoro-phenylamino)-benzoyl]-4-methyl-phenyl}-[1,2,3]triazol-1-yl)-acetic acid ethyl ester]: the IC50 amounted to 3.6 nM in the test with TNF-α [1] and 6.3 nM in the test with IL-1β.
For `Cc1ccc(-c2cn(CC(=O)NC(C)(C)CO)nn2)cc1C(=O)c1ccc(Nc2ccc(F)cc2F)cc1Cl` [Compound 113, 2-(4-{3-[2-Chloro-4-(2,4-difluoro-phenylamino)-benzoyl]-4-methyl-phenyl}-[1,2,3]triazol-1-yl)-N-(2-hydroxy-1,1-dimethyl-ethyl)-acetamide] the same measures were 0.6 nM and 6.3 nM.
Taken in the same sequence, the figures for `Cc1ccccc1Nc1ccc(C(=O)c2cc(-n3cc(CCO)nn3)ccc2C)c(Cl)c1` [Compound 117, (2-Chloro-4-o-tolylamino-phenyl)-{5-[4-(2-hydroxy-ethyl)-[1,2,3]triazol-1-yl]-2-methyl-phenyl}-methanone] were 1.1 nM and 1.6 nM.
Taken in the same sequence, the figures for `Cc1ccc(-n2cc(CCO)nn2)cc1C(=O)c1ccc(Nc2ccc(F)cc2Cl)cc1Cl` [Compound 118, [2-Chloro-4-(2-chloro-4-fluoro-phenylamino)-phenyl]-{5-[4-(2-hydroxy-ethyl)-[1,2,3]triazol-1-yl]-2-methyl-phenyl}-methanone] were 0.9 nM and 1.3 nM.
For `COc1ccc(-c2cn(CCO)nn2)cc1C(=O)c1ccc(Nc2ccc(F)cc2F)cc1Cl` [Compound 120, [2-Chloro-4-(2,4-difluoro-phenylamino)-phenyl]-{5-[1-(2-hydroxy-ethyl)-1H-[1,2,3]triazol-4-yl]-2-methoxy-phenyl}-methanone], the IC50 stood at 0.8 nM with TNF-α [1] and 5 nM in the test with IL-1β.
On to `Cc1ccc(-n2cc(CCO)nn2)cc1C(=O)c1ccc(Nc2ccc(F)cc2F)cc1Cl` [Compound 128, [2-Chloro-4-(2,4-difluoro-phenylamino)-phenyl]-{5-[4-(2-hydroxy-ethyl)-[1,2,3]triazol-1-yl]-2-methyl-phenyl}-methanone], for which, in the test on TNF-α [1], the IC50 was 1 nM. In addition, the inhibition in vivo at 1 mg/kg in the test on TNF-α [2] amounted to 95%.
Taken in the same sequence, the figures for `Cc1ccc(-n2cc(C(C)(C)O)nn2)cc1C(=O)c1ccc(Nc2ccc(F)cc2F)cc1Cl` [Compound 129, [2-Chloro-4-(2,4-difluoro-phenylamino)-phenyl]-{5-[4-(1-hydroxy-1-methyl-ethyl)-[1,2,3]triazol-1-yl]-2-methyl-phenyl}-methanone] were 1.4 nM and 83%.
In the case of `CC(=O)c1cn(-c2ccc(C)c(C(=O)c3ccc(Nc4ccc(F)cc4F)cc3Cl)c2)nn1` [Compound 130, 1-(1-{3-[2-Chloro-4-(2,4-difluoro-phenylamino)-benzoyl]-4-methyl-phenyl}-1H-[1,2,3]triazol-4-yl)-ethanone], the IC50 in the test with TNF-α [1] worked out at 0.6 nM; in the test on IL-1β, 1.3 nM.
As to `Cc1ccc(-n2cc(CCN)nn2)cc1C(=O)c1ccc(Nc2ccc(F)cc2F)cc1Cl` [Compound 136, {5-[4-(2-Amino-ethyl)-[1,2,3]triazol-1-yl]-2-methyl-phenyl}-[2-chloro-4-(2,4-difluoro-phenylamino)-phenyl]-methanone], the IC50 was determined as 1.3 nM in the test on TNF-α [1] and 1.6 nM in the test on IL-1β.
For the compound `Cc1ccc(-n2cc(CNC(N)=O)nn2)cc1C(=O)c1ccc(Nc2ccc(F)cc2F)cc1Cl` [Compound 137, (1-{3-[2-Chloro-4-(2,4-difluoro-phenylamino)-benzoyl]-4-methyl-phenyl}-1H-[1,2,3]triazol-4-ylmethyl)-urea], the results for the IC50 with TNF-α [1] and in the test with IL-1β were 0.3 nM and 1 nM, respectively.
Consider `Cc1ccc(-n2cc(CCN3CCOCC3)nn2)cc1C(=O)c1ccc(Nc2ccc(F)cc2F)cc1Cl` [Compound 138, [2-Chloro-4-(2,4-difluoro-phenylamino)-phenyl]-{2-methyl-5-[4-(2-morpholin-4-yl-ethyl)-[1,2,3]triazol-1-yl]-phenyl}-methanone], for which the IC50 with TNF-α [1] amounted to 2 nM; with IL-1β it was 3.2 nM.
As for `Cc1ccc(-n2cc(CCN3CCN(C)CC3)nn2)cc1C(=O)c1ccc(Nc2ccc(F)cc2F)cc1Cl` [Compound 139, [2-Chloro-4-(2,4-difluoro-phenylamino)-phenyl]-(2-methyl-5-{4-[2-(4-methyl-piperazin-1-yl)-ethyl]-[1,2,3]triazol-1-yl}-phenyl)-methanone], the IC50 in the test on TNF-α [1] was 0.5 nM; with IL-1β it was 1.6 nM.
For `CCN(CC)CCc1cn(-c2ccc(C)c(C(=O)c3ccc(Nc4ccc(F)cc4F)cc3Cl)c2)nn1` [Compound 140, [2-Chloro-4-(2,4-difluoro-phenylamino)-phenyl]-{5-[4-(2-diethylamino-ethyl)-[1,2,3]triazol-1-yl]-2-methyl-phenyl}-methanone] the same measures were 0.8 nM and 2 nM.
As to `Cc1ccc(-n2cc(CCNCCO)nn2)cc1C(=O)c1ccc(Nc2ccc(F)cc2F)cc1Cl` [Compound 141, [2-Chloro-4-(2,4-difluoro-phenylamino)-phenyl]-(5-{4-[2-(2-hydroxy-ethylamino)-ethyl]-[1,2,3]triazol-1-yl}-2-methyl-phenyl)-methanone], the IC50 with TNF-α [1] and in the test on IL-1β was 0.6 nM each time.
On to `CCCNCCc1cn(-c2ccc(C)c(C(=O)c3ccc(Nc4ccc(F)cc4F)cc3Cl)c2)nn1` [Compound 142, [2-Chloro-4-(2,4-difluoro-phenylamino)-phenyl]-{2-methyl-5-[4-(2-propylamino-ethyl)-[1,2,3]triazol-1-yl]-phenyl}-methanone], for which the IC50 in the test with TNF-α [1] was 0.8 nM; in the test with IL-1β, 1 nM.
For `Cc1cc(F)ccc1Nc1ccc(C(=O)c2cc(-n3cc(CCO)nn3)ccc2C)c(Cl)c1` [Compound 143, [2-Chloro-4-(4-fluoro-2-methyl-phenylamino)-phenyl]-{5-[4-(2-hydroxy-ethyl)-[1,2,3]triazol-1-yl]-2-methyl-phenyl}-methanone], the IC50 is 1 nM in the test with TNF-α [1] and 4 nM with IL-1β.
Taken in the same sequence, the figures for `Cc1cc(Cl)ccc1Nc1ccc(C(=O)c2cc(-n3cc(CCO)nn3)ccc2C)c(Cl)c1` [Compound 145, [2-Chloro-4-(4-chloro-2-methyl-phenylamino)-phenyl]-{5-[4-(2-hydroxy-ethyl)-[1,2,3]triazol-1-yl]-2-methyl-phenyl}-methanone] were 2 nM and 5 nM.
